{"source": "patent US20040009464A1", "about": "“Methods for identifying compounds for inhibition of neoplastic lesions, and pharmacetical compositions containing such compounds” (priority 1998, published 2004)", "key": {"[1]": {"tested_on": "HT-29 cells", "assay": "Apoptosis and necrosis by morphology (acridine orange/ethidium bromide) in HT-29 cells", "assay_type": "cell-based, human", "details": "HT-29 treated for six days", "text": "Apoptosis occurs naturally during normal tissue turnover and during embryonic development of organs and limbs. Apoptosis also is induced by cytotoxic T-lymphocytes and natural killer cells, by ionizing radiation and by certain chemotherapeutic drugs. Inappropriate regulation of apoptosis is thought to play an important role in many pathological conditions including cancer, AIDS, or Alzheimer's disease, etc. Compounds can be screened for induction of apoptosis using cultures of tumor cells maintained under conditions as described above. Treatment of cells with test compounds involves either pre- or post-confluent cultures and treatment for two to seven days at various concentrations. Apoptotic cells are measured in both the attached and “floating” compartments of the cultures. Both compartments are collected by removing the supernatant, trypsinizing the attached cells, and combining both preparations following a centrifugation wash step (10 minutes, 2000 rpm). The protocol for treating tumor cell cultures with sulindac and related compounds to obtain a significant amount of apoptosis has been described in the literature. […]\nThe apoptosis inducing activity for a series of phosphodiesterase inhibitors was determined. […] Apoptosis and necrosis were determined morphologically after acridine orange and ethidium bromide labeling in accordance with the assay described, supra."}, "[2]": {"tested_on": "β-catenin and PKG in SW480 cells", "assay": "Western blot of β-catenin and PKG in SW480 cells", "assay_type": "cell-based, human", "protocol": "SW480 cells treated with exisulind as described previously are harvested from the microfuge tubes by rinsing once with ice-cold PBS. The cells are lysed by modified RIPA buffer for 15 minutes with agitation. The cell lysate is spun down in a cold room. The supernatants are transferred to fresh microcentrifuge tubes immediately after spinning. BioRad DC Protein Assay (Temecula, CA) is performed to determine the protein concentrations in samples. The samples are normalized for protein concentration, as described above.\n50 μg of each sample is loaded to 10% SDS gel. SDS-PAGE is performed, and the proteins then are transferred to a nitrocellulose membrane. The blotted nitrocellulose membrane are blocked in freshly prepared TBST containing 5% nonfat dry milk for one hour at room temperature with constant agitation.\nA goat-anti-PKG primary antibody is diluted to the recommended concentration/dilution in fresh TBST/5% nonfat dry milk. The nitrocellulose membrane is placed in the primary antibody solution and incubated one hour at room temperature with agitation. The nitrocellulose membrane is washed three times for ten minutes each with TBST. […]\nThis observation was made by culturing SW480 cells with either 200, 400 or 600 μM exisulind or vehicle (0.1% DMSO). […] Immuno-reactive protein can be detected by Western blot. […]"}, "[3]": {"tested_on": "polyps in APC patients", "assay": "Clinical prevention trial in patients with adenomatous polyposis coli (APC)", "assay_type": "in vivo, human", "text": "The first clinical trial involved patients with APC. using exisulind. In that study, each patient had already had his/her colon removed, except for a small section of colon adjacent the rectum (where the small intestine was attached) to preserve rectal function. However, such a patient commonly forms polyps in the small remaining colonic section, which polyps require periodic removal (e.g., by electrocautery).\nThat trial where exisulind was selected was a prevention trial designed to evaluate the anti-neoplastic characteristics of the drug by comparing the cumulative number of new polyps formed over twelve months by the drug and placebo groups. Eligible patients were those who form between 9 and 44 polyps per year. Patients were fully ablated (had all polyps removed) at the start of the study, at the end of 6 months and at the end of 12 months. The study enrolled thirty-four eligible patients. […] Based on the median number of polyps produced in the first six months of the study, patients treated with exisulind developed approximately one-third the number of polyps as patients treated with placebo (median values 9 polyps/year and 26 polyps/year, respectively; p=0.013). […]"}, "[4]": {"assay": "Safety evaluation in exisulind clinical trials", "assay_type": "in vivo", "protocol": "In these exisulind trials and several others involving the drug in other indications, safety was evaluated by monitoring adverse events (AEs), clinical laboratory tests (hematology, serum chemistry, and urinalysis), vital signs (blood pressure, pulse rate, respiratory rate, temperature, and weight), physical examination, and upper endoscopy."}, "[5]": {"target": "T1, cGMP binding sites of GST-cGB-PDE5 fusion protein (Homo sapiens, UniProt O76074)", "T1 construct": "made in house; host or cells: E. coli BL21 (DE3)", "T1 sequence (O76074 46-539 limits assumed)": "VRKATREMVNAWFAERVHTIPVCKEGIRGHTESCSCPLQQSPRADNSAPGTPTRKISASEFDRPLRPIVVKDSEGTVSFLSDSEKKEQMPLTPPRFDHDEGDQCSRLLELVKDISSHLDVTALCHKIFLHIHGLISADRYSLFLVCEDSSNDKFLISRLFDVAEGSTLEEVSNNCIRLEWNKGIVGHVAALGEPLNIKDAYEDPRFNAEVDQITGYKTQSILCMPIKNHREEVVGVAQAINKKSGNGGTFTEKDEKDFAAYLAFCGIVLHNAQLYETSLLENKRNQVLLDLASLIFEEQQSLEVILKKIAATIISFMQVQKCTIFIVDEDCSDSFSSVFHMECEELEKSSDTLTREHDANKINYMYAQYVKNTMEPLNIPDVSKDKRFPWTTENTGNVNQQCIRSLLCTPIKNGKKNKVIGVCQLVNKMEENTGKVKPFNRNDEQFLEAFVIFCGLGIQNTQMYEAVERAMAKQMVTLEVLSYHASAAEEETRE", "assay": "cGMP binding assay with GST-cGB-PDE5 fusion protein", "details": "FIG. 24"}}}
{"smiles": "CC1=C(CC(=O)O)c2cc(F)ccc2/C1=C\\c1ccc(S(C)(=O)=O)cc1", "note": "[Exisulind, 5-fluoro-2-methyl-1-(p-methylsulfonylbenzylidene)-3-indenylacetic acid]", "values": [{"measurement": "apoptotic and necrotic cell death", "setting": "[1]", "value": "capable of causing apoptotic cell death without inducing necrosis"}, {"measurement": "reduction of β-catenin expression compared to control", "setting": "[2]; SW480, 200, 400 or 600 μM, 48 hours, Western blot", "value": 50, "unit": "%"}, {"measurement": "PKG level by Western blot", "setting": "[2]; SW480, 48 hours", "value": "increase of PKG"}, {"measurement": "median number of polyps, entire 12 months", "setting": "[3]; entire 12 months of the study", "value": 18, "unit": "polyps/year"}, {"measurement": "median number of polyps, first six months", "setting": "[3]; first six months of the study", "value": 9, "unit": "polyps/year"}, {"measurement": "clinical safety", "setting": "[4]; human, in vivo", "value": "No outstanding safety issues have been demonstrated"}, {"measurement": "dose-limiting adverse events", "setting": "[4]; human, in vivo", "value": "elevations in liver function tests"}, {"measurement": "apoptosis rates in polyp and normal colonic tissues", "setting": "[4]; paired biopsies in APC patients", "value": "increased apoptosis rates in polyp, but not normal colonic tissues"}, {"measurement": "competition with cGMP (2 μM) in binding of GST-cGB-PDE5", "setting": "[5]", "value": "None of the PDE5 inhibitors showed any competition"}]}
